Measured values published in publication PMC10818600, “In Silico Design, Synthesis, and Evaluation of Novel Enantiopure Isoxazolidines as Promising Dual Inhibitors of α-Amylase and α-Glucosidase” (Molecules, 2024).
Values joined by “and” are separate entries in the source; they are usually repeats but may differ in a detail not shown here. Equal entries are not always repeated.

Experiments:
Type in all cases: biochemical
[1] = target: T1, human pancreatic α-amylase (Homo sapiens, UniProt P04746); test: α-amylase inhibition assay; details: for IC50: mean ± standard error, triplicates
T1 sequence (P04746 16-511): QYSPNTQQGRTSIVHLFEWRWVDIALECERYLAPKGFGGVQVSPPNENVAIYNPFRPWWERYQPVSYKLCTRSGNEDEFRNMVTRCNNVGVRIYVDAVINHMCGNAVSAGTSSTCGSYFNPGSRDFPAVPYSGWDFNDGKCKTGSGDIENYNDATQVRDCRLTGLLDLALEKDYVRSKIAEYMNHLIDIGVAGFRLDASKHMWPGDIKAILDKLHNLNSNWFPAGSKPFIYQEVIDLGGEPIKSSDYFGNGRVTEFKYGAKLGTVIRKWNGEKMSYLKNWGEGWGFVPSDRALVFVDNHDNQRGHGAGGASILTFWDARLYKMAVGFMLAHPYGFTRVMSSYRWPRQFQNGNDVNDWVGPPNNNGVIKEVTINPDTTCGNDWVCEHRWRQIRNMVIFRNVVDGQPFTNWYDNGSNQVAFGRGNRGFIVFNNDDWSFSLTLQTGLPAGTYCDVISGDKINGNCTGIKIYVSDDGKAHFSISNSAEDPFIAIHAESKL
Procedure: (§1) The inhibitory potential of the synthesized analogs against human pancreatic α-amylase and human lysosomal acid-α-glucosidase enzymes was carried out using the same protocol as described previously with slight modification. […] The percent of inhibition for both enzymes was calculated via the following formula: % inhibition=Abs(blank)−Abs(test compoud)/Abs (blank)×100
(§2) The results were expressed as IC50 (μM), and all the experiments were carried out in triplicates.

[2] = target: human lysosomal acid-α-glucosidase (Homo sapiens, UniProt P10253); test: α-glucosidase inhibition assay; details: for IC50: mean ± standard error, triplicates
Procedure: as §1, §2

[3] = target: T2, α-amylase (Homo sapiens, UniProt P04746); test: enzyme kinetic study, mode of α-amylase inhibition (Lineweaver–Burk)
T2 sequence (P04746 16-511): T1 sequence (P04746 16-511)
Procedure: (§3) The kinetic studies were carried out based on the above IC50 values. […] A volume of 20 μL was incubated for 15 min at 30 °C using varying concentrations of the inhibitor 5d against α-amylase (0, 5, 25, and 35 μM) and α-glucosidase ([…]) with varying concentrations of inhibitor substrate (starch) in the range 0.3 to 8 mM, whereas concentrations for the inhibitor substrate (p-nitrophenyl-α-D-glucopyranoside, PNPg) were in the range 0.1–1.3 mM, respectively. This was conducted according to the same protocol as previously described, with slight modifications. The type of enzyme inhibition was assessed by preparing Lineweaver–Burk plots of the inverse of the velocities (1/V) versus the inverse of the substrate’s concentration 1/[S] mM^−1, and the change in absorbance was measured spectrophotometrically at 405 nm. The constant of inhibition, Ki, was determined through the secondary plot of the slope versus the inhibitor concentration.

[4] = target: α-glucosidase (Homo sapiens, UniProt P10253); test: enzyme kinetic study, mode of α-glucosidase inhibition (Lineweaver–Burk)
Procedure: as §3

[5] = ratio of IC50 values vs acarbose

| IC50 [1] | IC50 [2] | SMILES | α-amylase inhibitory activity, fold higher than that of acarbose [1, 5] | α-glucosidase inhibitory activity, fold higher than that of acarbose [2, 5] | mode of α-amylase inhibition ([3]; Lineweaver–Burk plot: Vmax unchanged, Km increased) | Ki ([3]; estimated from secondary re-plot of Lineweaver–Burk plots, substrate starch, read-out: inhibition constant Ki, α-amylase) | mode of α-glucosidase inhibition ([4]; Lineweaver–Burk plot: Km increases, Vmax constant) | Ki ([4]; estimated from slope vs inhibitor concentration, substrate PNPg, read-out: inhibition constant Ki, α-glucosidase) |
| --- | --- | --- | --- | --- | --- | --- | --- | --- |
| 183.8 ± 0.498 µM | 204.6 ± 0.41 µM | COc1cc(C[C@@H]2C[C@@H]3C(=O)N(C)C4(C[C@H](C)CC[C@H]4C(C)C)N3O2)ccc1OCC(=O)NNC(=O)Nc1ccc(Br)cc1 (stereo partly drawn) [5f, N-(4-bromophenyl)-2-(2-(4-(((2S,2′R, 3a’R, 5R)-2-isopropyl-5,5′-dimethyl-4′-oxotetrahydro-2′H-spiro[cyclohexane-1,6′-imidazo[1,5-b]isoxazol]-2′-yl)methyl)-2-methoxyphenoxy)acetyl)hydrazine-1-carboxamide] | – | – | – | – | – | – |
| 134.8 ± 0.411 µM | 170.8 ± 0.358 µM | COc1cc(C[C@@H]2C[C@@H]3C(=O)N(C)C4(C[C@H](C)CC[C@H]4C(C)C)N3O2)ccc1OCC(=O)NNC(=O)Nc1ccc(F)cc1 (stereo partly drawn) [5g, N-(4-fluorophenyl)-2-(2-(4-(((2S,2′R,3a’R,5R)-2-isopropyl-5,5′-dimethyl-4′-oxotetrahydro-2′H-spiro [cyclohexane-1,6′-imidazo[1,5-b]isoxazol]-2′-yl)methyl)-2-methoxyphenoxy)acetyl)hydrazine-1-carboxamide] | – | – | – | – | – | – |

Second part, the molecule before the results:

| SMILES | IC50 [1] | IC50 [2] | α-amylase inhibitory activity, fold higher than that of acarbose [1, 5] | α-glucosidase inhibitory activity, fold higher than that of acarbose [2, 5] | mode of α-amylase inhibition ([3]; Lineweaver–Burk plot: Vmax unchanged, Km increased) | Ki ([3]; estimated from secondary re-plot of Lineweaver–Burk plots, substrate starch, read-out: inhibition constant Ki, α-amylase) | mode of α-glucosidase inhibition ([4]; Lineweaver–Burk plot: Km increases, Vmax constant) | Ki ([4]; estimated from slope vs inhibitor concentration, substrate PNPg, read-out: inhibition constant Ki, α-glucosidase) |
| --- | --- | --- | --- | --- | --- | --- | --- | --- |
| Cc1cccc(C[C@@H]2C[C@@H]3C(=O)N(C)C4(C[C@H](C)CC[C@H]4C(C)C)N3O2)c1OCC(=O)NNC(=O)Nc1cccc(Cl)c1 (stereo partly drawn) [5c, N-(3-chlorophenyl)-2-(2-(2-(((2S,2′R,3a’R,5R)-2-isopropyl-5,5′-dimethyl-4′-oxotetrahydro-2′H-spiro[cyclohexane-1,6′-imidazo[1,5-b]isoxazol]-2′-yl)methyl)-6-methylphenoxy)acetyl)hydrazine-1-carboxamide] | 92.28 ± 0.276 µM | 120.9 ± 0.333 µM | – | – | – | – | – | – |
| Cc1cccc(C[C@@H]2C[C@@H]3C(=O)N(C)C4(C[C@H](C)CC[C@H]4C(C)C)N3O2)c1OCC(=O)NNC(=O)Nc1cccc2ccccc12 (stereo partly drawn) [5d, 2-(2-(2-(((2S,2′R,3a’R,5R)-2-isopropyl-5,5′-dimethyl-4′-oxotetrahydro-2′H-spiro[cyclohexane-1,6′-imidazo[1,5-b]isoxazol]-2′-yl)methyl)-6-methylphenoxy)acetyl)-N-(naphthalen-1-yl)hydrazine-1-carboxamide] | 53.03 ± 0.106 µM | 94.33 ± 0.282 µM | 5.6 fold and 5.59 fold | 8.3 fold and 8.27 fold | competitive | 31.9 µM | competitive | 89.5 µM |
| Cc1cccc(C[C@@H]2C[C@@H]3C(=O)N(C)C4(C[C@H](C)CC[C@H]4C(C)C)N3O2)c1OCC(=O)NNC(=O)Nc1ccc(Cl)c(C(F)(F)F)c1 (stereo partly drawn) [5b, N-(3-trifluoromethyl-4-chlorophenyl)-2-(2-(2-(((2S,2′R,3a’R,5R)-2-isopropyl-5,5′-dimethyl-4′-oxotetrahydro-2′H-spiro[cyclohexane-1,6′-imidazo[1,5-b]isoxazol]-2′-yl)methyl)-6-methylphenoxy)acetyl)hydrazine-1-carboxamide] | 67.4 ± 0.202 µM | 118.9 ± 0.325 µM | – | – | – | – | – | – |
| Cc1cccc(C[C@@H]2C[C@@H]3C(=O)N(C)C4(C[C@H](C)CC[C@H]4C(C)C)N3O2)c1OCC(=O)NNC(=O)Nc1ccc(Cl)cc1 (stereo partly drawn) [5e, N-(4-chlorophenyl)-2-(2-(2-(((2S,2′R,3a’R,5R)-2-isopropyl-5,5′-dimethyl-4′-oxotetrahydro-2′H-spiro[cyclohexane-1,6′-imidazo[1,5-b]isoxazol]-2′-yl)methyl)-6-methylphenoxy)acetyl)hydrazine-1-carboxamide] | 232.8 ± 0.517 µM | 258.7 ± 0.521 µM | – | – | – | – | – | – |
| Cc1cccc(C[C@@H]2C[C@@H]3C(=O)N(C)C4(C[C@H](C)CC[C@H]4C(C)C)N3O2)c1OCC(=O)NNC(=O)Nc1ccc(F)cc1 (stereo partly drawn) [5a, N-(4-fluorophenyl)-2-(2-(2-(((2S,2′R,3a’R,5R)-2-isopropyl-5,5′-dimethyl-4′-oxotetrahydro-2′H-spiro[cyclohexane-1,6′-imidazo[1,5-b]isoxazol]-2′-yl)methyl)-6-methylphenoxy)acetyl)hydrazine-1-carboxamide] | 120.3 ± 0.306 µM | 152.3 ± 0.367 µM | – | – | – | – | – | – |
